Experimental data from patent US20210403465A1, “QUINAZOLINYL-INDAZOLE DERIVATIVES AND THEIR USE AS INHIBITORS OF HUMAN IMMUNODEFICIENCY VIRUS REPLICATION” (ViiV HEALTHCARE UK (NO.5) LIMITED, priority 2018, published 2021).

Tests used:
[1] = system: recombinant NL4-3 virus (Renilla luciferase) in MT-2 cells; assay: HIV cell culture assay (antiviral activity, luciferase readout in MT-2 cells); type: cell-based; conditions: NL43
Method: HIV cell culture assay—MT-2 cells, 293T cells and the proviral DNA clone of NL4-3 virus were obtained from the NIH AIDS Research and Reference Reagent Program. MT-2 cells were propagated in RPMI 1640 media supplemented with 10% heat inactivated fetal bovine serum (FBS), […]. The 293T cells were propagated in DMEM media supplemented with 10% heat inactivated FBS, […]. A recombinant NL4-3 proviral clone, in which a section of the nef gene was replaced with the Renilla luciferase gene, was used to make the reference virus used in these studies. The recombinant virus was prepared through transfection of the recombinant NL4-3 proviral clone into 293T cells using Transit-293 Transfection Reagent from Mirus Bio LLC (Madison, Wis.). Supernatant was harvested after 2-3 days and the amount of virus present was titered in MT-2 cells using luciferase enzyme activity as a marker by measuring luciferase enzyme activity. Luciferase was quantitated using the EnduRen Live Cell Substrate from Promega (Madison, Wis.). Antiviral activities of compounds toward the recombinant virus were quantified by measuring luciferase activity in MT-2 cells infected for 4-5 days with the recombinant virus in the presence of serial dilutions of the compound.
The 50% effective concentration (EC50) was calculated by using the exponential form of the median effect equation where (Fa)=1/[1+(ED50/drug conc.)m] (Johnson V A, Byington R T. Infectivity Assay. In Techniques in HIV Research. ed. Aldovini A, Walker B D. 71-76. New York: Stockton Press. 1990). The 50% inhibitory concentration (EC50) was calculated by using the exponential form of the median effect equation where percent inhibition=1/[1+(EC50/drug concentration)m], where m is a parameter that reflects the slope of the concentration-response curve.

[2] = Compound cytotoxicity, XTT-based colorimetric assay; type: cell-based; conditions: human; uninfected MT2 cells, day 4, XTT
Method: Compound cytotoxicity and the corresponding CC50 values were determined using the same protocol as described in the antiviral assay except that uninfected cells were used. Cytotoxicity was assessed on day 4 in uninfected MT2 cells by using a XTT (2,3-bis[2-Methoxy-4-nitro-5-sulfophenyl]-2H-tetrazolium-5-carboxyanilide inner salt)-based colorimetric assay (Sigma-Aldrich, St Louis, Mo.).

## Cn1nc(NS(C)(=O)=O)c2c(Cl)ccc(-n3c([C@H](Cc4cc(F)cc(F)c4)NC(=O)Cn4nc(C(F)F)c5c4C(F)(F)[C@@H]4C[C@H]54)nc4cc(OCCC(C)(C)C(F)(F)F)ccc4c3=O)c21 (atropisomer, axis not shown; (P)) [Example 14, N—((S)-1-((3P)-3-(4-chloro-1-methyl-3-(methylsulfonamido)-1H-indazol-7-yl)-4-oxo-7-(4,4,4-trifluoro-3,3-dimethylbutoxy)-3,4-dihydroquinazolin-2-yl)-2-(3,5-difluorophenyl)ethyl)-2-((3bS,4aR)-3-(difluoromethyl)-5,5-difluoro-3b,4,4a,5-tetrahydro-1H-cyclopropa[3,4]cyclopenta[1,2-c]pyrazol-1-yl)acetamide]
[1]
  EC50: 0.23 nM
[2]
  CC50 at 4 days: > 500 nM

## Cn1nc(NS(C)(=O)=O)c2c(Cl)ccc(-n3c([C@H](Cc4cc(F)cc(F)c4)NC(=O)Cn4nc(C(F)F)c5c4C(F)(F)[C@@H]4C[C@H]54)nc4cc(OCCOC(F)F)ccc4c3=O)c21 (atropisomer, axis not shown; (P)) [Example 15, N—((S)-1-((3P)-3-(4-chloro-1-methyl-3-(methylsulfonamido)-1H-indazol-7-yl)-7-(2-(difluoromethoxy)ethoxy)-4-oxo-3,4-dihydroquinazolin-2-yl)-2-(3,5-difluorophenyl)ethyl)-2-((3bS,4aR)-3-(difluoromethyl)-5,5-difluoro-3b,4,4a,5-tetrahydro-1H-cyclopropa[3,4]cyclopenta[1,2-c]pyrazol-1-yl)acetamide]
[1]
  EC50: 0.051 nM
[2]
  CC50 at 4 days: > 500 nM
